How the values were obtained:
late watergrass = assay: Test Example 1: herbicidal activity, application before weed generation under submerged conditions (Table 16, symbol A); type: in vivo, late watergrass (Echinochloa oryzicola); conditions: 246 g/ha applied herbicide
How it was run: (§1)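 Alluvial soil was flooded to 4 cm depth, weed seeds were sown mixed and 2.5-leaf rice seedlings were transplanted. On sowing day, the compound's emulsion, diluted in water to a set dose, was applied to the water surface. Plants grew at 25–30 °C and were scored 0–5 after three weeks.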

wild oat [1] = assay: Test Example 4: herbicidal effect by soil treatment (Table 19, symbol I); type: in vivo, wild oat (Avena fatua); conditions: AAH 246 g/ha
How it was run: (§2)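 In this soil treatment, the formulated compound reached the seeds only through the soil: seeds were buried about 1.5 cm deep in sterilized diluvial soil, then the diluted emulsion was sprayed over the surface. After three weeks at 25° C. to 30° C. in a greenhouse, effects were graded on criteria from an earlier test.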

Chinese sprangletop = assay: Test Example 3: herbicidal effect by foliage application, Wagner pot (Table 18, symbol D); type: in vivo, chinese sprangletop (Leptochloa chinensis); conditions: 246 g/ha
How it was run: (§3)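 Plants were sown in alluvial soil held under 0.1–0.5 cm standing water and grown 14 days in a greenhouse at 25–30 °C. An emulsifiable formulation, water-diluted to the set dose, was then sprayed onto the foliage, and effects were scored three weeks later using previously defined criteria.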

barnyard grass [2] = assay: Test Example 4: herbicidal effect by soil treatment (Table 19, symbol H); type: in vivo, barnyard grass (Echinochloa crus-galli); conditions: AAH 246 g/ha
How it was run: as §2

persian speedwell [3] = assay: Test Example 4: herbicidal effect by soil treatment (Table 19, symbol R); type: in vivo, Persian speedwell (Veronica persica); conditions: AAH 246 g/ha
How it was run: as §2

Japanese bulrush = assay: Test Example 1: herbicidal activity, application before weed generation under submerged conditions (Table 16, symbol B); type: in vivo, Japanese bulrush (Schoenoplectus juncoides); conditions: 246 g/ha applied herbicide
How it was run: as §1

chickweed [4] = assay: Test Example 4: herbicidal effect by soil treatment (Table 19, symbol P); type: in vivo, common chickweed (Stellaria media); conditions: AAH 246 g/ha
How it was run: as §2

southern crabgrass [5] = assay: Test Example 5: herbicidal effect by foliage application, plastic box (Table 20, symbol F); type: in vivo, southern crabgrass (Digitaria ciliaris); conditions: foliage application, AAH 246 g/ha, three weeks after application
How it was run: (§4)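 Plants were sown into sterilized diluvial soil under about 1.5 cm cover and kept in a greenhouse at 25° C. to 30° C. Fourteen days on, foliage received an even spray of the diluted emulsion. Herbicidal or crop effect was judged three weeks afterwards.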

green foxtail [6] = assay: Test Example 5: herbicidal effect by foliage application, plastic box (Table 20, symbol G); type: in vivo, green foxtail (Setaria viridis); conditions: foliage application, AAH 246 g/ha, three weeks after application
How it was run: as §4

oval-leafed pondweed = assay: Test Example 1: herbicidal activity, application before weed generation under submerged conditions (Table 16, symbol C); type: in vivo, oval-leafed pondweed (Monochoria vaginalis); conditions: 246 g/ha applied herbicide
How it was run: as §1

green foxtail [7] = assay: Test Example 4: herbicidal effect by soil treatment (Table 19, symbol G); type: in vivo, green foxtail (Setaria viridis); conditions: AAH 246 g/ha
How it was run: as §2

blackgrass [8] = assay: Test Example 5: herbicidal effect by foliage application, plastic box (Table 20, symbol J); type: in vivo, blackgrass (Alopecurus myosuroides); conditions: foliage application, AAH 246 g/ha, three weeks after application
How it was run: as §4

chickweed [9] = assay: Test Example 5: herbicidal effect by foliage application, plastic box (Table 20, symbol P); type: in vivo, common chickweed (Stellaria media); conditions: foliage application, AAH 246 g/ha, three weeks after application
How it was run: as §4

persian speedwell [10] = assay: Test Example 5: herbicidal effect by foliage application, plastic box (Table 20, symbol R); type: in vivo, Persian speedwell (Veronica persica); conditions: foliage application, AAH 246 g/ha, three weeks after application
How it was run: as §4

velvetleaf [11] = assay: Test Example 4: herbicidal effect by soil treatment (Table 19, symbol M); type: in vivo, velvetleaf (Abutilon theophrasti); conditions: AAH 246 g/ha
How it was run: as §2

blackgrass [12] = assay: Test Example 4: herbicidal effect by soil treatment (Table 19, symbol J); type: in vivo, blackgrass (Alopecurus myosuroides); conditions: AAH 246 g/ha
How it was run: as §2

barnyard grass [13] = assay: Test Example 5: herbicidal effect by foliage application, plastic box (Table 20, symbol H); type: in vivo, barnyard grass (Echinochloa crus-galli); conditions: foliage application, AAH 246 g/ha, three weeks after application
How it was run: as §4

lambsquarters [14] = assay: Test Example 5: herbicidal effect by foliage application, plastic box (Table 20, symbol O); type: in vivo, lambsquarters (Chenopodium album); conditions: foliage application, AAH 246 g/ha, three weeks after application
How it was run: as §4

lambsquarters [15] = assay: Test Example 4: herbicidal effect by soil treatment (Table 19, symbol O); type: in vivo, lambsquarters (Chenopodium album); conditions: AAH 246 g/ha
How it was run: as §2

Italian ryegrass [16] = assay: Test Example 4: herbicidal effect by soil treatment (Table 19, symbol K); type: in vivo, Italian ryegrass (Lolium multiflorum); conditions: AAH 246 g/ha
How it was run: as §2

windgrass [17] = assay: Test Example 4: herbicidal effect by soil treatment (Table 19, symbol L); type: in vivo, windgrass (Apera spica-venti); conditions: AAH 246 g/ha
How it was run: as §2

windgrass [18] = assay: Test Example 5: herbicidal effect by foliage application, plastic box (Table 20, symbol L); type: in vivo, windgrass (Apera spica-venti); conditions: foliage application, AAH 246 g/ha, three weeks after application
How it was run: as §4

velvetleaf [19] = assay: Test Example 5: herbicidal effect by foliage application, plastic box (Table 20, symbol M); type: in vivo, velvetleaf (Abutilon theophrasti); conditions: foliage application, AAH 246 g/ha, three weeks after application
How it was run: as §4

wild oat [20] = assay: Test Example 5: herbicidal effect by foliage application, plastic box (Table 20, symbol I); type: in vivo, wild oat (Avena fatua); conditions: foliage application, AAH 246 g/ha, three weeks after application
How it was run: as §4

Italian ryegrass [21] = assay: Test Example 5: herbicidal effect by foliage application, plastic box (Table 20, symbol K); type: in vivo, Italian ryegrass (Lolium multiflorum); conditions: foliage application, AAH 246 g/ha, three weeks after application
How it was run: as §4

redroot pigweed [22] = assay: Test Example 4: herbicidal effect by soil treatment (Table 19, symbol N); type: in vivo, redroot pigweed (Amaranthus retroflexus); conditions: AAH 246 g/ha
How it was run: as §2

barnyard grass [23] = assay: Test Example 3: herbicidal effect by foliage application, Wagner pot (Table 18, symbol H); type: in vivo, barnyard grass (Echinochloa crus-galli); conditions: 246 g/ha
How it was run: as §3

southern crabgrass [24] = assay: Test Example 4: herbicidal effect by soil treatment (Table 19, symbol F); type: in vivo, southern crabgrass (Digitaria ciliaris); conditions: AAH 246 g/ha
How it was run: as §2

redroot pigweed [25] = assay: Test Example 5: herbicidal effect by foliage application, plastic box (Table 20, symbol N); type: in vivo, redroot pigweed (Amaranthus retroflexus); conditions: foliage application, AAH 246 g/ha, three weeks after application
How it was run: as §4

rice flat sedge = assay: Test Example 3: herbicidal effect by foliage application, Wagner pot (Table 18, symbol E); type: in vivo, rice flat sedge (Cyperus iria); conditions: 246 g/ha
How it was run: as §3

C=Cc1ccc(-c2sc3ccccc3c2-c2c(OC(=O)CCC)c(C)nn(C)c2=O)cc1 [1-128]
Herbicidal effect on A: late watergrass (grade 0-5) (late watergrass): 0 (Herbicidal rate of 5% or less (almost no effect)) | I: wild oat, herbicidal effect rating (wild oat [1]): 0 (Herbicidal rate of 5% or less (almost no effect)) | herbicidal effect on D (Chinese sprangletop), rating 0-5 (Chinese sprangletop): 5 (Herbicidal rate of 90% or more (almost completely withered)) | H: barnyard grass, herbicidal effect rating (barnyard grass [2]): 0 (Herbicidal rate of 5% or less (almost no effect)) | R: persian speedwell, herbicidal effect rating (persian speedwell [3]): 3 (Herbicidal rate of 40% or more and less than 70%) | Herbicidal effect on B: Japanese bulrush (grade 0-5) (Japanese bulrush): 5 (Herbicidal rate of 90% or more (almost completely withered)) | P: chickweed, herbicidal effect rating (chickweed [4]): 3 (Herbicidal rate of 40% or more and less than 70%) | F: southern crabgrass, herbicidal effect (southern crabgrass [5]): 0 (Herbicidal rate of 5% or less (almost no effect)) | G: green foxtail, herbicidal effect (green foxtail [6]): 0 (Herbicidal rate of 5% or less (almost no effect)) | Herbicidal effect on C: oval-leafed pondweed (grade 0-5) (oval-leafed pondweed): 5 (Herbicidal rate of 90% or more (almost completely withered)) | G: green foxtail, herbicidal effect rating (green foxtail [7]): 0 (Herbicidal rate of 5% or less (almost no effect)) | J: blackgrass, herbicidal effect (blackgrass [8]): 3 (Herbicidal rate of 40% or more and less than 70%) | P: chickweed, herbicidal effect (chickweed [9]): 5 (Herbicidal rate of 90% or more (almost completely withered)) | R: persian speedwell, herbicidal effect (persian speedwell [10]): 5 (Herbicidal rate of 90% or more (almost completely withered)) | M: velvetleaf, herbicidal effect rating (velvetleaf [11]): 0 (Herbicidal rate of 5% or less (almost no effect)) | J: blackgrass, herbicidal effect rating (blackgrass [12]): 0 (Herbicidal rate of 5% or less (almost no effect)) | H: barnyard grass, herbicidal effect (barnyard grass [13]): 1 (Herbicidal rate of 5% or more and less than 20%) | O: lambsquarters, herbicidal effect (lambsquarters [14]): 4 (Herbicidal rate of 70% or more and less than 90%) | O: lambsquarters, herbicidal effect rating (lambsquarters [15]): 0 (Herbicidal rate of 5% or less (almost no effect)) | K: Italian ryegrass, herbicidal effect rating (Italian ryegrass [16]): 2 (Herbicidal rate of 20% or more and less than 40%) | L: windgrass, herbicidal effect rating (windgrass [17]): 0 (Herbicidal rate of 5% or less (almost no effect)) | L: windgrass, herbicidal effect (windgrass [18]): 4 (Herbicidal rate of 70% or more and less than 90%) | M: velvetleaf, herbicidal effect (velvetleaf [19]): 4 (Herbicidal rate of 70% or more and less than 90%) | I: wild oat, herbicidal effect (wild oat [20]): 1 (Herbicidal rate of 5% or more and less than 20%) | K: Italian ryegrass, herbicidal effect (Italian ryegrass [21]): 4 (Herbicidal rate of 70% or more and less than 90%) | N: redroot pigweed, herbicidal effect rating (redroot pigweed [22]): 4 (Herbicidal rate of 70% or more and less than 90%) | herbicidal effect on H (barnyard grass), rating 0-5 (barnyard grass [23]): 4 (Herbicidal rate of 70% or more and less than 90%) | F: southern crabgrass, herbicidal effect rating (southern crabgrass [24]): 0 (Herbicidal rate of 5% or less (almost no effect)) | N: redroot pigweed, herbicidal effect (redroot pigweed [25]): 5 (Herbicidal rate of 90% or more (almost completely withered)) | herbicidal effect on E (rice flat sedge), rating 0-5 (rice flat sedge): 3 (Herbicidal rate of 40% or more and less than 70%)

— patent publication US20230085307A1, “PYRIDAZINONE COMPOUND AND HERBICIDE” (NISSAN CHEMICAL CORPORATION, priority 2019, published 2023)
